What was measured:
LnmJ-SH = molecular target: T1, LnmJ-SH (Streptomyces atroolivaceus, UniProt Q8GGP2); test: pyruvate release, OPD derivatization, HPLC; format: biochemical; details: 0.2 mM PLP, 20 mM KCl, 28 °C
T1 construct: E. coli, plasmid pBS3109, published procedure; PLP-dependent

GnmT-SH = system: T2, GnmT-SH; test: pyruvate release, OPD derivatization, HPLC; format: biochemical, Streptomyces sp. CB01883; details: 0.2 mM PLP, 20 mM KCl, 28 °C
T2 construct: N-terminal His6 tag (same procedure as GnmP), E. coli, plasmid pBS21022; PLP-dependent

WsmR-SH = system: T3, WsmR-SH; test: pyruvate release, OPD derivatization, HPLC; format: biochemical, Streptomyces sp. CB02120-2; details: 0.2 mM PLP, 20 mM KCl, 28 °C
T3 construct: N-terminal His6 tag (same procedure as GnmP), E. coli, plasmid pBS22010; PLP-dependent

GnmP [1] = system: T4, GnmP; test: HPLC of S-methylated product; format: biochemical, Streptomyces sp. CB01883; details: 2 mM SAM; 50 mM sodium phosphate pH 8.0; 28 °C
T4 construct: N-terminal His6-tagged GnmP, E. coli BL21(DE3), plasmid pBS21021

GnmP [2] = system: T4, GnmP; test: HPLC of methylated product […], WsmR-SH coupled; format: biochemical, Streptomyces sp. CB01883; details: 7 generated in situ from 9 as surrogate substrate by 220 µM WsmR-SH; 2 mM SAM; 50 mM sodium phosphate pH 8.0; 28 °C; methods print substrate range in mM

T1 sequence (Q8GGP2 entry or part of it): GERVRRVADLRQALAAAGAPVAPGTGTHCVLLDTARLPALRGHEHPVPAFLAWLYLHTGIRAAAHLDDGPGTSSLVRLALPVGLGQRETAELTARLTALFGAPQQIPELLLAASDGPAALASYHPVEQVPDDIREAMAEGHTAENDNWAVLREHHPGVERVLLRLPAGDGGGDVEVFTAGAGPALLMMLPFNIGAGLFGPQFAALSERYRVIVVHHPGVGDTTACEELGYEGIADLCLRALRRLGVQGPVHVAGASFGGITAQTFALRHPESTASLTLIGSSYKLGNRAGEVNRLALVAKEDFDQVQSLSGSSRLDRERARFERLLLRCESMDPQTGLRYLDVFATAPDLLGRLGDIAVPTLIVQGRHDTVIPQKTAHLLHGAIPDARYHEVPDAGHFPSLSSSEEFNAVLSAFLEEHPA

Compound | Km (LnmJ-SH; 50 mM sodium phosphate pH 7.2) | Km (GnmT-SH; 50 mM sodium phosphate pH 7.2) | Km (WsmR-SH; 50 mM sodium phosphate pH 7.2) | other results
CC(=O)NCCSC(=O)CC(C)(C)SC[C@H](N)C(=O)O [compound 16, N-acetylcysteamine thioester (SNAC) of a truncated L-cysteine-polyketide adduct] | 69 ± 11 mM | 41 ± 5 mM | 54 ± 10 mM | –
CC(=O)NCCSC(=O)CC(C)(C)SSC[C@H](N)C(=O)O [compound 17, SNAC of a truncated L-thiocysteine-polyketide adduct] | 9 ± 0.9 mM | 7.7 ± 1.2 mM | 6.6 ± 0.7 mM | –
GNM B [compound 4] | – | – | – | Km (GnmP [1]): 0.0121 ± 0.0022 mM
GNM P [compound 7] | – | – | – | Km (GnmP [2]): 0.00245 ± 0.00041 mM
L-cysteinyl-GNM B adduct [compound 9] | – | – | – | Km (LnmJ-SH; Tris-HCl pH 8.5): 7.04 ± 0.84 mM; Km (GnmT-SH; 50 mM sodium phosphate pH 8.0): 3.2 ± 0.3 mM; Km (WsmR-SH; 50 mM sodium phosphate pH 8.0): 1.45 ± 0.12 mM

From publication PMC8479088, “Thiocysteine lyases as polyketide synthase domains installing hydropersulfide into natural products and a hydropersulfide methyltransferase” (Nature Communications, 2021)
